Experimental data taken from a melting point compilation (Tetko et al.; mined from patent text by program, amines drawn as free bases though some values may be those of a salt).

melting point [°C] | SMILES
149 to 150 | CC(O)CC(=O)c1cccc2c1nc(-c1c(F)cccc1F)n2Cc1c(F)cccc1F (stereo unspecified)
64 to 65 | Cc1noc(C)c1C(=O)Nc1ccc(-n2nc(C(F)(F)F)cc2C(F)(F)F)c(Cl)c1
168 to 170 | CC(C)(C)n1nnc(-c2ccc(CNc3n[nH]c4ncnc(Nc5cccc(Cl)c5)c34)cc2)n1
193 to 194 | COC(=O)c1c(OC)cc(CC(C#N)=CNc2ccccc2)cc1OC
97 to 98 | CCCCCCC(=O)c1ccc2c([N+](=O)[O-])c(O)c(O)cc2c1
122 to 123 | Cc1cc([N+](=O)[O-])ccc1N1CCN(C(=O)OC(C)(C)C)CC1
264 to 266 | O=c1[nH]c2ncc(-c3ccn[nH]3)nc2n1CC1CCCCC1
156 to 158 | CC(C)c1ccc([N+](=O)[O-])c(C(C)C)c1NC(=O)CN1CCN(CCCSc2nc3ccccc3o2)CC1
147 to 148 | CCC(C)(C)c1ccc2nc(-c3ccc([N+](=O)[O-])cc3)oc2c1
135 to 137 | CC(C)(C)NC(=S)Nc1cc(F)cc(Cl)c1
191 to 193 | S=c1[nH]c2cccc(OCCNCc3cccc4ccccc34)c2[nH]1
93 to 94 | CCOC(=O)/C(=C\Nc1cc(OC)ccc1OC)c1ccccc1
150 | CN(C)c1ccc(C(=O)c2ccc(N)cc2)cc1
68 to 70 | O=C(OI(OC(=O)C(F)(F)F)C(F)(F)C(F)(F)C(F)(F)C(F)(F)C(F)(F)C(F)(F)C(F)(F)F)C(F)(F)F
104 to 108 | CSc1cc(C)nc(SC)c1NC(=O)CCCCCCCSc1nc2ccccc2s1
160 to 162 | COC(=O)c1c(S(C)(=O)=O)ccc(C(=O)O)c1Cl
73 to 74 | CCCCCCCCCCCCCCOc1ccc(OCc2ccccc2)c(C(=O)O)c1
173 to 174 | COc1cc2ncnc(N3CCC(C(C)(O)CN4CCCS4(=O)=O)CC3)c2cc1OC (stereo unspecified)
117 | c1ccc(Cc2cccc3c2[nH]c2ccccc23)cc1
255 to 257 | CC(=O)Nc1ccc(C=CC2=NNC(=O)C(C)(C)C2)cc1
60.5 to 61.5 | Nc1c(Br)cc(OC(F)F)cc1[N+](=O)[O-]
145 to 147 | O=C1C(=O)c2ccccc2C2=C1SCC1(CCN(CCCCc3ccccc3)CC1)O2
162 to 164 | CC1=C(C)C(=O)C(C(CCCCCC(=O)NCC(=O)O)c2ccccc2)=C(C)C1=O (stereo unspecified)
> 260 | COc1cc(OC)c(-c2c(C)noc2C)cc1C=CC(=O)c1ccc(C(=O)O)cc1

melting point [°C] | SMILES
67 to 68 | OCc1c(F)c(Cl)c(F)c(Cl)c1F
168 to 169 | O=C1c2ccccc2C(=O)C1c1ccncn1
148 | Nc1ccc(NC(=O)OCc2ccccc2)c(O)c1
164 | O=C1CCC(c2ccccc2)(c2ccccc2)C(C[N+](=O)[O-])C1 (racemic)
178 to 180 | C#CCN1C(=O)C(CC#N)C(CC)(CC)N=C1c1ccccc1 (stereo unspecified)
103 to 104 | CC(C)(C)c1ccc(C2CC(=O)c3ccccc3O2)cc1 (stereo unspecified)
80 to 83 | O=C(O)CNC(=O)c1cccc(NC(=O)C(CS)Cc2ccccc2)c1 (stereo unspecified)
183 to 185 | CSc1c(Cl)ccc(C(=O)O)c1F
184 to 185 | CC(C)c1ccc2c(c1)c(-c1ccccc1Cl)c(C(=O)O)c(=O)n2C
252 | Cn1cc(-c2cc(-c3ccc(N)nc3)ccn2)n(-c2ccc(C(C)(C)C#N)cc2)c1=O
214 to 215 | CCN1C(=O)SC(Cc2ccc(NC(=O)/C=C/c3cnn(C)c3-c3ccc(F)cc3)cc2)C1=O (stereo unspecified)
179 to 180 | O=C(OCn1c(=O)[nH]cc(F)c1=O)c1cccnc1
169 to 170 | Cc1nn(-c2ccc(Br)cc2)cc1C(=O)N(CC(=O)O)c1ccc(OCC(C)(C)C)c(C#N)c1
120 | CCCC(=O)C1c2cccc(OC(=O)C(C)(C)C)c2C(=O)c2c(OC(=O)C(C)(C)C)cccc21
70 | O=Cc1ccc(-c2ccc(C(F)(F)F)cc2)cc1
135 | COC(=O)c1cc(OCc2ccccc2)c(OCc2ccccc2)c(CSCC(=O)O)n1
128 to 129 | COc1ccc(CC(=O)NC(NC(=NC#N)Nc2cccc3ncccc23)C(C)(C)C)cc1OC (stereo unspecified)
152 to 155 | CN(C(=O)/C=C/c1ccco1)c1ccc(S(=O)(=O)NC2CCCCCC2)cc1
135 to 140 | CC(Cn1ccnc1)OCC(O)(P(=O)(O)O)P(=O)(O)O (stereo unspecified)
203 to 204 | COc1cc(OC)nc(C2(O)OC(=O)c3c2ccnc3C)n1 (stereo unspecified)
189 to 192 | Cc1ccc(-c2cncnc2O)cc1
81 to 83 | CC(=O)SCC(C)C(=O)N(CC(=O)O)C1Cc2ccccc2C1 (stereo unspecified)
64 to 66 | CCN(CC)CCNC(=O)c1cc(Cl)c2cc(I)ccc2n1
39 to 65 | Cc1cccc(COCc2cccc(OCc3ccc4ccccc4n3)c2)c1C(=O)O

melting point [°C] | SMILES
110 | O=S(=O)(Cc1cc(F)cc(F)c1)NC1CN(C(c2ccc(Cl)cc2)c2cccnc2)C1 (racemic)
168 to 170 | CN(C(=O)Nc1cccnc1)c1ccc2c(ccn2C)c1
236 to 237 | COc1cc(Cc2cnc(N)nc2N)cc2c1OC(C)(C)C=C2C#CCO
99 to 100 | COc1ccc(CCCCNC(=O)CCl)cc1
186 to 187 | Cc1oc(-c2ccccc2)nc1COc1ccc(Cn2cc(/C=C/C(=O)O)cn2)cc1
158 | Cc1ccc(CNCC2(F)CCN(C(=O)c3ccc(F)c(F)c3)CC2)nc1
160 to 162 | CCOC(=O)C(O)=Cc1ncc(Cc2ccc(F)cc2)s1
188 to 189 | COc1cc(OC)c2c(=O)[nH]c(-c3cccc(N4CCN(CC(C)C)CC4)n3)nc2c1
178 to 179 | CCn1ncc2c(C(F)(F)F)cc(=O)[nH]c21
227 to 229 | CN1CCN(c2nc3sc4c(NCCc5ccccn5)ncnc4c3c3c2COC(C)(C)C3)CC1
200 to 202 | O=C(Nc1ccc(C(F)(F)F)cc1)C1=NN(c2ccc(Cl)nn2)C(c2ccc(F)cc2)C1 (stereo unspecified)
248 to 249 | CN1CCN(c2cccc3c2CC(C(=O)Nc2ccc(N4CCOCC4)cc2)C3)CC1 (stereo unspecified)
230 to 235 | COc1ccc(-c2cnn3c(N)c(-c4ccc(F)c(F)c4)c(C)nc23)cc1OC
204 to 207 | CC(=O)Nc1ccc2oc([N+](=O)[O-])c(-c3ccccc3)c2c1
115 to 116 | COC(=O)c1cc(OC)c(N=Nc2ccccc2)c(OC)c1
101 to 105 | Cc1cc(C(C)(C)C)c(O)c(S(=O)(=O)Nc2ccc(C#N)cc2Cl)c1
169 to 170 | O=C(Nc1ccc([N+](=O)[O-])cc1)N1CC=CCC1
93.5 to 94 | C[Si](C)(CCSCCCNC(=O)n1cc(F)c(=O)[nH]c1=O)c1ccccc1
63 to 65 | Fc1ccc(-n2ccc3cc(OCCCCCCCBr)ccc32)cc1
37.5 to 39.5 | CCOC(=O)c1c(C(F)(F)F)nc(C(F)(F)Cl)c(C(=O)OC)c1OCC
106 | CCn1cc(-c2cccc(C(F)(F)F)c2)c(=O)n1-c1cccc(Br)c1
109 to 110 | COc1cc(NC(=O)CCCCCN2CCN(C3CCCCC3)CC2)c2nccc(C)c2c1
138 to 140 | CCC1CCC(=O)C=C1c1ccc(OCC(=O)O)cc1Cl (stereo unspecified)
310 to 312 | O=C(O)c1ccc2c(c1)S(=O)(=O)c1ccc([N+](=O)[O-])cc1C=C2

melting point [°C] | SMILES
135 to 142 | O=C(Nc1ccc(-n2nc(C3CC3)cc2C2CC2)cc1)c1cccc(F)c1F
116 to 119 | CCCc1nc2ccccc2n1CC1=C(c2cccc(-c3nnn[nH]3)c2)CCC1
168 | CCn1ncc(OCc2ccc(C(=O)c3ccc(Cl)cc3)s2)c(Cl)c1=O
220 to 225 | CC(C)(C)OC(=O)NC(C(=O)NOC(c1ccccc1)(c1ccccc1)c1ccccc1)C1(O)CCSC1 (stereo unspecified)
230 to 232 | COc1ccc(Cc2n[nH]c3c2c(=O)n(-c2ccccc2)c2ncccc32)cc1OC
117 to 119 | Cc1ccc(C)c(-c2sc(NC(=O)[C@@H]3C[C@@H]4CC[C@H]3C4)c(C#N)c2Cl)c1
114 to 115 | CC(C)(C)c1cc(-c2ccc(F)cc2F)cc(C(=O)Nc2ccc(S(=O)(=O)C(F)(F)F)cc2Cl)c1O
80 to 82 | COc1ccc(C2CCc3cc(C)ccc3C2=O)cc1 (stereo unspecified)
127 | COc1ccc(C=CC(=O)c2c(OC)cc(OC)cc2OC(=O)OCc2ccccc2)cc1
> 270 | COC(=O)c1ccc(-c2nnc(-c3cccc(NC(=O)Nc4ccc(C(C)C)cc4)c3)o2)cc1
89 | COC(=O)c1cccc(Oc2ccnc(Cl)c2)n1
144 to 145 | O=C(CC1CCNCC1)c1ccc(N2CCCC2)cc1
122 | N#Cc1ccc(CC23CCCN2C(=O)N(c2cc(Cl)cc(Cl)c2N)C3=O)cc1 (stereo unspecified)
133 to 135 | CC(C)CN1CN(C)CN(c2c(Cl)cccc2Cl)C1=S
220 to 231 | Cc1ccc2cccc(OCc3c(Cl)ccc(N(C)C(=O)CNC(=O)/C=C/c4ccc(NC(=O)c5cnccn5)nc4)c3Cl)c2n1
72 to 74 | COc1ccc(OC)c2c(Nc3cccc(Br)c3)c(C#N)cnc12
169 to 174 | CC(=O)Nc1cccc(-c2nc3sccn3c2-c2ccnc(N[C@@H]3CCCN(S(=O)(=O)c4ccc(Cl)cc4)C3)n2)c1
132 | CCOC(=O)CC(CC(=O)OCC)N1CCC(Nc2ncc3ncnc(Nc4cccc(Br)c4)c3n2)CC1
177 to 179 | Cc1cc(Br)ccc1NC(=O)c1cccc(S(=O)(=O)N2CCCCCC2)c1
288 to 289 | CC(=O)Nc1nc2c(Oc3cc(-c4ccc(C(F)(F)F)cc4NC(=O)CC4CCCCC4)ncn3)cccc2s1
132 to 133 | CCOc1cc2c(cc1OC(C)=O)CCC1C2CCC2(C)C(OC(C)=O)CCC12 (stereo unspecified)

SMILES | melting point [°C]
O=C1CCN(C(=O)C(Cc2ccccc2)NC(=O)c2cc3cc(Cl)ccc3[nH]2)CC1 (stereo unspecified) | 258 to 261
Cc1cccc(C)c1N1Cc2ccccc2P1(C)=O (stereo unspecified) | 128 to 129
CCC1Cc2ccc(NC(=N)c3cccs3)cc2CN1C (stereo unspecified) | 125 to 126
